Entries after “also recorded” stand apart in the source; their conditions may differ.

One experiment has as its system rat. Put plainly: Tail-flick latency (TFL) test of morphine analgesia and tolerance. The class given is in vivo. The conditions noted are these: for Analgesic effect of the drug itself: administered alone, without morphine; for Development versus behavioral expression of morphine tolerance (tail flick latency): co-administered with morphine for several days, then morphine alone on the final day; for Effect on analgesic effect of morphine given subsequently: drug in 10% cyclodextrin vehicle for 4 days, morphine alone on day 5; for Reversal of established morphine tolerance: morphine given for varying periods, then drug added. The procedure:
Analgesic effectiveness is typically studied using the tail-flick test, where a hot light is shined on a rat's tail and the time required for the rat to move (“flick”) its tail recorded (TFL, or tail flick latency).
To determine whether GLEEVEC® (imatinib) blocked the development or expression of tolerance, morphine and GLEEVEC® (imatinib) was co-administered for 4 days, and then on day 5 morphine alone was administered.
To determine whether IRESSA® (gefitinib) blocked the development or expression of tolerance, morphine and IRESSA® (gefitinib) was co-administered for 4 days, and then on day 5 morphine alone was administered.
A drug can inhibit the expression of narcotic tolerance if it is analgesic itself or if previous drug administration alters subsequent narcotic analgesia. To determine whether either of these possibilities were the case, animals were treated animals with either the cyclodextrin-based vehicle used to solubilize GLEEVEC® (imatinib) (10% CDSBE) or GLEEVEC® (imatinib) in vehicle for 4 days, and then on the fifth day were given morphine alone.
A drug can inhibit the expression of narcotic tolerance if it is analgesic itself or if previous drug administration altered narcotic analgesia. To determine whether either of these possibilities were the case, animals were treated animals with either the cyclodextrin-based vehicle used to solubilize IRESSA® (gefitinib) (10% CAPTISOL® (sulfobutylether-β-cyclodextrin)) or IRESSA® (gefitinib) in vehicle for 4 days, and then on the fifth day were given morphine alone.
Another possible explanation for apparent inhibition of opioid tolerance would be that GLEEVEC® (imatinib) or IRESSA® (gefitinib) could alter morphine pharmacokinetics, causing a different time course of analgesia with co-administration.
Next it was desirable to determine if GLEEVEC® (imatinib) could reverse morphine tolerance. NMDA antagonists, which are known to inhibit the development of morphine tolerance, can only partially reverse morphine tolerance, and cannot reverse established tolerance. In addition, NMDA antagonists are highly toxic (many are chemically related to PCP), which also severely limits their clinical use. To determine whether GLEEVEC® (imatinib) could reverse established morphine tolerance, morphine was given for varying periods of time, and then GLEEVEC® (imatinib) was added. […] On day 7, morphine alone was given to all groups.
In general terms: Hot-plate and tail-flick tests time the reaction to a heat stimulus.

Experiment [1] has as its system rats that have undergone sciatic nerve ligation. Put plainly: Sciatic nerve ligation model of neuropathic pain, Von Frey hair testing. The class given is in vivo. The conditions noted are these: for Effect upon allodynia / analgesia (Von Frey hairs): sciatic nerve ligation, alone or co-administered as labelled. The source says:
To test the methods of treatment presented herein, we use the sciatic nerve ligation model of Chung et al. (model of neuropathic pain). Chung, J. M., H. K. Kim, and K. Chung, Segmental Spinal Nerve Ligation Model Of Neuropathic Pain, Methods Mol Med, 2004. 99: p. 35-45. Animals undergo this ligation procedure, are allowed to recover, and tested for pain sensitivity using Von Frey hairs and/or pressure testing.
To test the methods of treatment presented herein, we use the sciatic nerve ligation model of Chung et al. (model of neuropathic pain). Chung, J. M., H. K. Kim, and K. Chung, Segmental spinal nerve ligation model of neuropathic pain. Methods Mol Med, 2004. 99: p. 35-45. Animals undergo this ligation procedure, are allowed to recover, and tested for pain sensitivity using Von Frey hairs and/or pressure testing.

The test system of experiment [2] is animals made physically dependent upon morphine. Description: Morphine physical dependence, naloxone-precipitated withdrawal. Format: in vivo. The settings on record: morphine pellets, drug systemically twice daily. The source says:
Animals were pelleted with continuous release morphine pellets, and treated with GLEEVEC® (imatinib) systemically twice daily. Withdrawal was precipitated by injection of naloxone.

In another experiment the test system is PDGF receptor. The conditions noted are these: cited from earlier work.
A further experiment concerns PDGFR-beta. Description: PDGFR-beta tyrosine phosphorylation in cell lines (immunoprecipitation, Western blotting with PY-20). The class given is cell-based. On the procedure:
Cells were treated with morphine, gabapentin, morphine and gabapentin, or water for 40 minutes. Cells were then washed, lysed, and immunoprecipitation was performed using a PDGFR-beta antibody. Western blotting was then performed using PY-20 antibody, which detects tyrosine phosphorylation. Blots were then stripped and re-probed with PDGFR-beta antibody to control for the amount of PDGFR-beta loaded in each lane.
In general terms: In western blotting, separated proteins are transferred to a membrane and probed.

Experiment [3] relates to alcohol dependent animals. The conditions noted are these: cited from earlier work.

Take `Cc1ccc(NC(=O)c2ccc(CN3CCN(C)CC3)cc2)cc1Nc1nccc(-c2cccnc2)n1` [GLEEVEC® (imatinib), imatinib]: in the experiment with rat, the “Analgesic effect of the drug itself” value was “do not exhibit analgesic effects; also recorded: neither GLEEVEC® (imatinib) nor vehicle was analgesic when administered alone; also recorded: no analgesic effect at any time point”; the “Inhibition of tolerance when co-administered with morphine from the beginning” value is recorded as “inhibited tolerance”; the “Development versus behavioral expression of morphine tolerance (tail flick latency)” value (“Development versus behavioral expression” for short) is on record as “inhibits the behavioral expression, not the development of opioid tolerance; also recorded: blocked the behavioral expression of morphine tolerance; also recorded: inhibited the expression of tolerance alone”; the “Effect on analgesic effect of morphine given subsequently” value is “do not exhibit analgesic effects, or interfere with the analgesic effects of morphine; also recorded: did not alter the analgesic effect of morphine given subsequently on day 5”. In addition, in the experiment on rat, the “Reversal of established morphine tolerance” value was “completely reverses and inhibits the behavioral expression of tolerance; also recorded: completely reversed tolerance”. The “Inhibition of morphine tolerance” value with rat (spinally administered, initial studies) is reported as “inhibited morphine tolerance”. In experiment [1], the “Effect upon allodynia / analgesia (Von Frey hairs)” value (shortened to “Effect upon allodynia / analgesia”) is “neither morphine nor GLEEVEC® (imatinib) alone have analgesic properties; also recorded: had no effect upon allodynia”. For the same compound, in experiment [2], the “Weight loss in precipitated withdrawal” value is recorded as “without affecting weight loss; also recorded: Weight loss was not affected”; the “Withdrawal behaviors in precipitated withdrawal” value was “reduces the behavioral expression of paw shakes and wet dog shakes; also recorded: withdrawal behaviors such as teeth chattering and wet dog shakes were reduced”. Further, the “Inhibition of receptor tyrosine kinase activity of the PDGF receptor” value in the experiment on PDGF receptor is on record as “inhibit the receptor tyrosine kinase activity of the PDGF receptor”.
As to `COc1cc2ncnc(Nc3ccc(F)c(Cl)c3)c2cc1OCCCN1CCOCC1` [IRESSA® (gefitinib), gefitinib], in the experiment on rat, the “Analgesic effect of the drug itself” value was “do not exhibit analgesic effects; also recorded: neither IRESSA® (gefitinib) nor vehicle was analgesic when administered alone”; the “Development versus behavioral expression” value is recorded as “inhibits the development, not the behavioral expression of opioid tolerance; also recorded: inhibited the development of morphine tolerance”; the “Effect on analgesic effect of morphine given subsequently” value is recorded as “do not exhibit analgesic effects, or interfere with the analgesic effects of morphine; also recorded: did not alter the analgesic effect of morphine given on day 5”. In experiment [1], the “Effect upon allodynia / analgesia” value is recorded as “neither morphine nor IRESSA® (gefitinib) alone have analgesic properties; also recorded: had no effect upon allodynia”.
With `NCC1(CC(=O)O)CCCCC1` [gabapentin], in the experiment on rat, the “Analgesic effect of the drug itself” value was “not analgesic itself”, the “Inhibition of tolerance when co-administered with morphine from the beginning” value was “blocks tolerance”, the “Development versus behavioral expression” value was “blocks the behavioral expression of tolerance” and the “Reversal of established morphine tolerance” value is “reverses established tolerance”. The “Doses required to block behavioral expression of tolerance, relative to GLEEVEC (imatinib)” value in the experiment on rat (rat, in vivo) is reported as 10 to 100 fold higher. Also, the “Number of doses to achieve peak effect” value in experiment [1] (sciatic nerve ligation model) is on record as “takes several doses to achieve its peak effect”. Moreover, the “Effect upon allodynia / analgesia” value in experiment [1] is “does not cause complete analgesia”. Also, the “Block of morphine-induced PDGFR-beta phosphorylation / PDGFR activation” value in the experiment with PDGFR-beta (co-administration with morphine, 40 minutes) was “blocked by co-administration of gabapentin”. In addition, the “Alcohol intake and self-administration” value in experiment [3] (alcohol dependent animals) was “reduce alcohol intake and self-administration”. Further, the “Anxiogenic effects of alcohol withdrawal” value in experiment [3] (alcohol dependent rats) is reported as “reversing anxiogenic effects of alcohol withdrawal”.
As to `CN1CC[C@]23c4c5ccc(O)c4O[C@H]2[C@@H](O)C=C[C@H]3[C@H]1C5` [morphine], the “Time of peak analgesic effect” value in the experiment on rat (time course on 4 consecutive days) worked out at 30 min. Besides, the “Effect upon allodynia / analgesia” value in experiment [1] is reported as “neither morphine nor IRESSA® (gefitinib) alone have analgesic properties; also recorded: neither morphine nor GLEEVEC® (imatinib) alone have analgesic properties; also recorded: had no effect upon allodynia”. Besides, in the experiment on PDGFR-beta (cells treated for 40 minutes), the “Increase in PDGFR-beta phosphorylation” value is recorded as 40%.

Values taken from patent US8501740B2, “Methods of treatment of opioid tolerance, physical dependence, pain and addiction with inhibitors of certain growth factor receptors” (priority 2007, dated 2013).
